Results reported in patent publication US20230192661A1, “1, 4, 5, 6-TETRAHYDROPYRIMIDINE-2-AMINE DERIVATIVE” (UBE Corporation, priority 2020, published 2023).

How the values were obtained:
αvβ1 = target: T1, αvβ1 (UniProt G3HZ55+P06756); assay: αvβ1 cell adhesion inhibition test (αv-transfected CHO cells on human fibronectin); format: cell-based; settings: human fibronectin coating, 1 mM MnCl2, 1 hour, read-out: IC50 (rate of inhibition of cell adhesion, αvβ1)
T1 construct: expressed in transfected cells; host or cells: CHO cells deficient in α5 gene, transfected with αv gene
T1 sequence (P06756 31-889 limits assumed): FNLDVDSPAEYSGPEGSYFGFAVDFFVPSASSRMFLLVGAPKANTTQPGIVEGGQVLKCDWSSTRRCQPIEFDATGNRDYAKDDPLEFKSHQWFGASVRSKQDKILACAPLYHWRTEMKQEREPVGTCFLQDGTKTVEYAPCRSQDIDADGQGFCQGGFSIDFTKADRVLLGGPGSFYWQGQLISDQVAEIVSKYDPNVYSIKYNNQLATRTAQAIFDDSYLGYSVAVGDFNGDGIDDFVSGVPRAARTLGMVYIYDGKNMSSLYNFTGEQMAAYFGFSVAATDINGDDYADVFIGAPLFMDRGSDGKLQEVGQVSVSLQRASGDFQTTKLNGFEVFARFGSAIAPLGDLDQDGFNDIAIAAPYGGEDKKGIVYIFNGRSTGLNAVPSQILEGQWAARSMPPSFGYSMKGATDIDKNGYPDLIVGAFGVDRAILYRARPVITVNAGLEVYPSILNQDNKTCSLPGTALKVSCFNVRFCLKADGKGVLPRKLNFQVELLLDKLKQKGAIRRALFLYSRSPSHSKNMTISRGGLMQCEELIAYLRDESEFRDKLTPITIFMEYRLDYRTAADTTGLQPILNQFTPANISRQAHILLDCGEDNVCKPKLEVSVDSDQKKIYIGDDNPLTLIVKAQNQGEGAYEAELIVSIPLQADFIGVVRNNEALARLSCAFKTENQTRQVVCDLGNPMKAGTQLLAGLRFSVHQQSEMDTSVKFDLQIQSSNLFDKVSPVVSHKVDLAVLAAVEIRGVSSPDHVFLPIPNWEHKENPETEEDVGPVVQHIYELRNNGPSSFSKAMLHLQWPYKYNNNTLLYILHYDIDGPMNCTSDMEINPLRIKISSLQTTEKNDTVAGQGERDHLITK
T1 sequence (P06756 891-1048 limits assumed): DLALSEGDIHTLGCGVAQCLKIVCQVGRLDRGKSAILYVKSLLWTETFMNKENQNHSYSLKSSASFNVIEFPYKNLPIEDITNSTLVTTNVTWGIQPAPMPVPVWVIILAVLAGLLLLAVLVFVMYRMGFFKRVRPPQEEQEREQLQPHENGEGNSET
T1 sequence (G3HZ55 21-798): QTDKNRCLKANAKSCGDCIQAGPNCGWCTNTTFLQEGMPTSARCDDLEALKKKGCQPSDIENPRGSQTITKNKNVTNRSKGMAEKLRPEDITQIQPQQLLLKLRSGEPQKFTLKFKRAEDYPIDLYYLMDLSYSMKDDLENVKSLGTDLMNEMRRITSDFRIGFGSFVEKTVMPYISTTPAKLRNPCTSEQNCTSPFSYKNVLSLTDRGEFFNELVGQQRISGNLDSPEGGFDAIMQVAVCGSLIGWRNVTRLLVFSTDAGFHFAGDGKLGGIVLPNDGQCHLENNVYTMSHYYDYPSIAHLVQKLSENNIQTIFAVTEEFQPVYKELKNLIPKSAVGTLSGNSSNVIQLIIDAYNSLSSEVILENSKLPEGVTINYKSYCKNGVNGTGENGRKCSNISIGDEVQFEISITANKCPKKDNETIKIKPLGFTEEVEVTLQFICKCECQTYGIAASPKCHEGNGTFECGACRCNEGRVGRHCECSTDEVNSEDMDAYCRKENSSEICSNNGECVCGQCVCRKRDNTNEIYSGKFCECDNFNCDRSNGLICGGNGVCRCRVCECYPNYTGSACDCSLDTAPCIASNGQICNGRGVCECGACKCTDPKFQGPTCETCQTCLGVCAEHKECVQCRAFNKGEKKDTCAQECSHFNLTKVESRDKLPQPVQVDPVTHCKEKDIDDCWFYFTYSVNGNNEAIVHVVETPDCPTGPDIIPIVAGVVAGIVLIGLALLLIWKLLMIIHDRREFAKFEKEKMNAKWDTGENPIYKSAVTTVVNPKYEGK
Procedure, shortened: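 α5-deficient CHO cells expressing αv, at 1×10^6 cells/mL in DMEM with 1 mM MnCl2 plus test compound, allowed to adhere 1 h at 37° C to human fibronectin (coated at 1.25 μg/mL). Adherent cells read by crystal violet absorbance, normalized to uncoated (100%) and DMSO (0%) wells. IC50 reported as banded classes.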

[1] = test system: TGF-β activation (phosphorylated SMAD3); assay: TGF-β activation inhibition test (inhibition of SMAD3 phosphorylation in TFK-1 cells); format: cell-based; settings: 48 h, fibronectin-coated plate, cultured 2 days, read-out: IC50 (rate of inhibition of phosphorylated SMAD3)
Procedure, shortened: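 TFK-1 cells on fibronectin-coated wells cultured 2 days at 37° C. with compound in RPMI 1640 with 1% FBS. Phospho-SMAD3 (Ser423/425) measured by cellular kit as DeltaF; inhibition scaled between DMSO (0%) and 10 μM LY364947 (100%), and IC50 calculated.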

Structure (SMILES): O=C(O)C[C@H](NC(=O)CNC(=O)c1cc(NC2=NCC(F)CN2)c2c(F)n[nH]c2c1)c1cc(Cl)cc(C(F)(F)F)c1 (stereo partly drawn) [Example 48-(b), (3S)-3-(3-chloro-5-(trifluoromethyl)phenyl)-3-(2-(3-fluoro-4-((5-fluoro-1,4,5,6-tetrahydropyrimidin-2-yl)amino)-1H-indazole-6-carboxamido)acetamido) propanoic acid]
- IC50 (αvβ1): 3 to 10 nM
- IC50 [1]: < 10 nM

Structure (SMILES): O=C(O)C[C@H](NC(=O)CNC(=O)c1cc(NC2=NCC(F)CN2)c2c(Cl)n[nH]c2c1)c1cc(Cl)cc(C(F)(F)F)c1 (stereo partly drawn) [Example 49-(b), (3S)-3-(2-(3-chloro-4-((5-fluoro-1,4,5,6-tetrahydropyrimidin-2-yl)amino)-1H-indazole-6-carboxamido)acetamido)-3-(3-chloro-5-(trifluoromethyl)phenyl)propanoic acid]
- IC50 (αvβ1): < 3 nM
- IC50 [1]: < 10 nM

Structure (SMILES): O=C(O)C[C@H](NC(=O)CNC(=O)c1cc(NC2=NCC(O)CN2)c2cn[nH]c2c1)c1cc(Cl)cc(C(F)(F)F)c1 (stereo partly drawn) [Example 50-(b), (3S)-3-(3-chloro-5-(trifluoromethyl)phenyl)-3-(2-(4-((5-hydroxy-1,4,5,6-tetrahydropyrimidin-2-yl)amino)-1H-indazole-6-carboxamido)acetamido)propanoic acid]
- IC50 (αvβ1): 10 to 30 nM
- IC50 [1]: ≥ 100 nM

Structure (SMILES): O=C(O)C[C@H](NC(=O)CNC(=O)c1cc(NC2=NCCCN2)c2cn[nH]c2c1)c1cc(Cl)cc(C(F)(F)F)c1 [Example 51-(b), (S)-3-(3-chloro-5-(trifluoromethyl)phenyl)-3-(2-(4-((1,4,5,6-tetrahydropyrimidin-2-yl)amino)-1H-indazole-6-carboxamido)acetamido)propanoic acid]
- IC50 (αvβ1): 30 to 100 nM
- IC50 [1]: 50 to 100 nM

Structure (SMILES): O=C(O)C[C@H](NC(=O)CNC(=O)c1cc(NC2=NCC(F)CN2)cc2[nH]ncc12)c1cc(Cl)cc(C(F)(F)F)c1 (stereo partly drawn) [Example 52-(b), (3S)-3-(3-chloro-5-(trifluoromethyl)phenyl)-3-(2-(6-((5-fluoro-1,4,5,6-tetrahydropyrimidin-2-yl)amino)-1H-indazole-4-carboxamido)acetamido)propanoic acid]
- IC50 (αvβ1): < 3 nM
- IC50 [1]: < 10 nM

Structure (SMILES): O=C(O)C[C@H](NC(=O)CNC(=O)c1cc(NC2=NCC(F)CN2)cc2[nH]ncc12)c1cc(Br)cc(C(F)(F)F)c1 (stereo partly drawn) [Example 53-(b), (3S)-3-(3-bromo-5-(trifluoromethyl)phenyl)-3-(2-(6-((5-fluoro-1,4,5,6-tetrahydropyrimidin-2-yl)amino)-1H-indazole-4-carboxamido)acetamido)propanoic acid]
- IC50 (αvβ1): < 3 nM
- IC50 [1]: < 10 nM

Structure (SMILES): O=C(O)C[C@H](NC(=O)CNC(=O)c1cc(NC2=NCC(F)CN2)cc2[nH]ncc12)c1cc(I)cc(C(F)(F)F)c1 (stereo partly drawn) [Example 54-(b), (3S)-3-(2-(6-((5-fluoro-1,4,5,6-tetrahydropyrimidin-2-yl)amino)-1H-indazole-4-carboxamido)acetamido)-3-(3-iodo-5-(trifluoromethyl)phenyl)propanoic acid]
- IC50 (αvβ1): < 3 nM
- IC50 [1]: < 10 nM

Structure (SMILES): O=C(O)C[C@H](NC(=O)CNC(=O)c1cc(NC2=NCC(F)CN2)cc2[nH]ncc12)c1ccc(F)c(C(F)(F)F)c1 (stereo partly drawn) [Example 55-(b), (3S)-3-(2-(6-((5-fluoro-1,4,5,6-tetrahydropyrimidin-2-yl)amino)-1H-indazole-4-carboxamido)acetamido)-3-(4-fluoro-3-(trifluoromethyl)phenyl)propanoic acid]
- IC50 (αvβ1): < 3 nM
- IC50 [1]: < 10 nM

Structure (SMILES): O=C(O)C[C@H](NC(=O)CNC(=O)c1cc(NC2=NCC(F)CN2)cc2[nH]ncc12)c1cccc(C(F)(F)F)c1 (stereo partly drawn) [Example 56-(b), (3S)-3-(2-(6-((5-fluoro-1,4,5,6-tetrahydropyrimidin-2-yl)amino)-1H-indazole-4-carboxamido)acetamido)-3-(3-(trifluoromethyl)phenyl)propanoic acid]
- IC50 (αvβ1): 3 to 10 nM
- IC50 [1]: < 10 nM
